Laboratory results: PMC4393105, “tRNA^Glu Increases the Affinity of Glutamyl-tRNA Synthetase for Its Inhibitor Glutamyl-Sulfamoyl-Adenosine, an Analogue of the Aminoacylation Reaction Intermediate Glutamyl-AMP: Mechanistic and Evolutionary Implications” (PLoS ONE, 2015)
Values joined by “and” are separate entries in the source; they are usually repeats but may differ in a detail not shown here. Identical values can stand only once.

Target: T1, E. coli GluRS + E. coli tRNA^Glu (Escherichia coli, UniProt P04805)
T1 construct: His tag (histidine tag) (C); made in house
Experiment: Isothermal titration microcalorimetry of Glu-AMS binding to GluRS in the presence of tRNA^Glu
Conditions: for Kd: Kd = 1/Kb
Protocol: Overproduction and purification of E. coli GluRS were performed as previously described with the following modifications. A C-terminal histidine-tagged GluRS was used instead of the N-terminal tagged one. The overproduction was induced overnight at 30°C with 1 mM IPTG.
Overproduction and purification of E. coli tRNA^Glu-enriched total tRNA was done as described. […] Saccharomyces cerevisiae tRNA^Phe, used as a negative control, was purchased from Sigma-Aldrich (cat No: R4018).
The GluRS solution with or without tRNA was dialyzed overnight in a D-tube dialyzer (Novagen) against 2 L of dialysis buffer (50 mM HEPES-KOH, pH 7.2, 10 mM MgCl2) at 4°C with light stirring. The next morning, the dialyzed solution was recovered and the volume adjusted by adding dialysis buffer to obtain the desired concentration (typically 9 μM GluRS and 11 μM tRNA^Glu). This solution was kept on ice until use. Glu-AMS was diluted in the dialysis buffer to obtain a final concentration of 90 μM. All buffers and solutions were degased with stirring under vacuum. The microcalorimetry experiments were carried out in a VP-ITC 100 microcalorimeter (MicroCal, GE Healthcare) using deionized water as an internal reference for all assays. VPViewer ITC 2000 and Origin v 5.0 softwares (Microcal Software, Inc) were used for data collection and analysis, respectively.
To measure the thermodynamic parameters of the interaction between Glu-AMS and GluRS, in the presence and in the absence of tRNA, a solution containing 9 μM GluRS with or without a stoichiometric excess of tRNA^Glu or S. cerevisiae tRNA^Phe (Table 1) was placed in the sample cell of the microcalorimeter. The following conditions were used for all tests: reference power was set at 12 μcal/s and stirring at 300 rpm, the “high” feedback mode and “No check Temp”, “Fast Equil” and “Auto” ITC equilibration options were selected. […] After a first injection of 1 μL over 2 s, a series of 39 injections (7.4 μL over 14.8 s) with 240 s between injections was performed. Injections of Glu-AMS in GluRS alone, GluRS•tRNA^Glu or GluRS•tRNA^Phe, were performed at 30°C (303 K), and done in duplicate. Injections of Glu-AMS in GluRS were also performed at 20°C and 37°C (293 and 310 K): 14 injections (20 μL over 40 s) followed the first injection of 1 μL. Each temperature was tested in duplicate, and in triplicate at 37°C.
The following nomenclature was used to describe the interaction at equilibrium between Glu-AMS and either GluRS or a GluRS•tRNA complex: GluRS•Glu-AMS↔GluRS+[…] Kd=[GluRS]×[Glu-AMS]/[GluRS•Glu-AMS] 1/Kd=Kb (binding constant, sometimes referred to as Ka).

[1] = single ITC run, tRNA^Glu 5.3 µM, 303 K, [ligand] 45 µM, [GluRS] 2.636 µM
[2] = single ITC run, tRNA^Glu 10.6 µM, 303 K, [ligand] 90 µM, [GluRS] 5.792 µM
[3] = with E. coli tRNA^Glu, 30°C, weighted mean of ITC runs

T1 sequence (P04805 whole entry): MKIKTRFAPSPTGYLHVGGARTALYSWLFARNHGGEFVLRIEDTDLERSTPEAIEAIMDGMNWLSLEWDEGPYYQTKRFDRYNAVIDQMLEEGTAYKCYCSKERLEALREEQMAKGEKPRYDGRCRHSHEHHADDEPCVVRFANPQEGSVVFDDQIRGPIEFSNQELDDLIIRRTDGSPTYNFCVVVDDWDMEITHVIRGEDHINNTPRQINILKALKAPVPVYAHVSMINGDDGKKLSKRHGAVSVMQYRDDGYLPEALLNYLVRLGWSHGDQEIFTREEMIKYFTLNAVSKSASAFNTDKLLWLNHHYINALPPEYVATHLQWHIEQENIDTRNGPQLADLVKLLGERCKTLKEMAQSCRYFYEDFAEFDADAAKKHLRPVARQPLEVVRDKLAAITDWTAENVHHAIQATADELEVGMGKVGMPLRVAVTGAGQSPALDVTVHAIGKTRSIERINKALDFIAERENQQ

**Q.** What does the source list for `Nc1ncnc2c1ncn2[C@@H]1O[C@H](COS(=O)(=O)NC(=O)[C@@H](N)CCC(=O)O)[C@@H](O)[C@H]1O` [Glu-AMS, 5’-O-[N-(L-glutamyl)sulfamoyl]adenosine]?
**A.** Kd (K d aa-AMP aaRS, in the presence of tRNA^Glu): 7 nM; Kd (Kd (dissociation constant), single ITC run, tRNA^Glu 5.3 µM, 303 K, [ligand] 45 µM, [GluRS] 2.636 µM): 5.49 ± 1.35 nM; Kd (Kd (dissociation constant), single ITC run, tRNA^Glu 10.6 µM, 303 K, [ligand] 90 µM, [GluRS] 5.792 µM): 8.96 ± 2.26 nM; -TΔSb [1]: -2908 ± 33; n (stoichiometry coefficient) [1]: 1.004 ± 0.006; ΔGb (reaction energy) [1]: -11.452 kcal/mol; ΔHb (reaction enthalpy) [1]: -8.537 ± 0.097 kcal/mol; ΔSb (reaction entropy) [1]: 9.596 ± 0.11 cal/mol·K; -TΔSb [2]: -3548 ± 38; n (stoichiometry coefficient) [2]: 1.000 ± 0.006; ΔGb (reaction energy) [2]: -11.156 kcal/mol; ΔHb (reaction enthalpy) [2]: -7.61 ± 0.081 kcal/mol; ΔSb (reaction entropy) [2]: 11.71 ± 0.12 cal/mol·K; -TΔSb [3]: -3.186 ± 0.025 kcal/mol; n (stoichiometry coefficient) [3]: 1.0018 ± 0.0041; ΔHb (reaction enthalpy) [3]: -7.99 ± 0.062 kcal/mol; ΔSb (reaction entropy) [3]: 10.5 cal/mol·K and 10.52 ± 0.08 cal/mol·K; fold decrease of the dissociation constant Kd in the presence of tRNA^Glu (with versus without tRNA^Glu): 50 fold; free energy of binding difference observed in the presence of tRNA^Glu (with versus without tRNA^Glu, 30°C): about 2.2 kcal/mol
